# Values of other authors, collected in publication PMC5117885 (Drug Design, Development and Therapy, 2016).
# Columns and labels:
# [1] = phase 3 ACCELERATE trial
# [2] = not given; remark: listed apart in the source
smiles,measurement,setting,value
CCC(CC)CC1(C(=O)Nc2ccccc2SC(=O)C(C)C)CCCCC1 [Dalcetrapib],Effect on HDL-C levels,,increased HDL-C levels
same,Reduction of cardiovascular events compared to placebo group,,did not demonstrate a significant reduction of cardiovascular events
Cc1cc(C)c2c(c1)[C@@H](N(Cc1cc(C(F)(F)F)cc(C(F)(F)F)c1)c1nnn(C)n1)CCCN2C[C@H]1CC[C@H](C(=O)O)CC1 [Evacetrapib],Efficacy,[1],did not improve the efficacy
CCOC(=O)N1c2ccc(C(F)(F)F)cc2[C@@H](N(Cc2cc(C(F)(F)F)cc(C(F)(F)F)c2)C(=O)OC)C[C@H]1CC [Torcetrapib],Effect on blood pressure and aldosterone,[2],Elevation of BP caused by torcetrapib was associated with a substantial increase of aldosterone
same,Effect on HDL-C and LDL-C,[2]; ILLUMINATE trial,HDL-C increase and LDL-C decrease
same,Risk of death and cardiac events,"[2]; ILLUMINATE trial, patients receiving torcetrapib",significantly increased risk of death and cardiac events
